The values that follow come from patent publication US9026372B2, “Methods for providing a system of care for a high-dose oxazaphosphorine drug regimen” (Accentia Biopharmaceuticals, Inc., priority 2007, dated 2015).

SMILES strings stand for the structures. Where two headings read alike, the source gives them in different places.

Data set [1] relates to aggressive relapsing-remitting multiple sclerosis.
Excerpt: All 9 patients had aggressive relapsing-remitting multiple sclerosis, 8 of whom failed conventional therapy and 1 was untreated. Median age at time of entry was 29 years (range of 20 to 47 years). The mean number of gadolinium enhancing lesions on baseline MRI was 6.5 (range 3-11).
Data set [2] has as its system white blood cell (WBC) count. From the text: On Day 6, (six days after completion of high-dose cyclophosphamide treatment), patients received G-CSF.

Take `O=P1(N(CCCl)CCCl)NCCCO1` (centres unmarked) [cyclophosphamide]: in data set [1] (9 patients, at baseline 66% had EDSS of 5.0 or more), the “reduction in disability (EDSS)” value came to 50%. Moreover, the “reduction in gadolinium enhancements” value is listed as 90% in data set [1] (at 6 months following 50 mg/kg/day intravenously for four days, 9 patients, baseline mean 6.5 lesions) and 94% in data set [1] (by 18 months following 50 mg/kg/day intravenously for four days, 9 patients). In addition, the adverse outcomes in data set [1] (initial cohort of 9 patients with severe relapsing MS) is “no significant adverse outcomes”. Besides, the “patients having no disability (EDSS score of 0)” value in data set [1] (of 9 patients, after treatment) is on record as 3 patients. Besides, the “patients with EDSS score of 1” value in data set [1] (of 9 patients, after treatment) amounted to 1 patient. The “patients with an exacerbation during follow-up” value in data set [1] (of 9 patients, started on conventional MS therapy at 18 months) was “one”. Moreover, the “minimum WBC” value in data set [2] (patient HiCy01, never had GEL, suspected exacerbations) stood at 70; in data set [2] (patient HiCy07, went to 0 GEL, single GEL on follow-up MRI) it was 6; in data set [2] (patient HiCy14, went to 0 GEL, single GEL on follow-up MRI), 31. The “minimum WBC count” value in data set [2] (patient HiCy11, GEL on every follow up) was determined as 24; in data set [2] (patient HiCy19, GEL on every follow up, only 6 months of follow-up) it was 50; in data set [2] (patients HiCy09 and HiCy15 (both), 0 GEL) it was 12. Further, the “WBC count (minimum)” value in data set [2] (patients HiCy05 and HiCy13, within two weeks of treatment, no GEL up to 24 months follow-up) was 0.
